The record followed here is patent EP3623369A1, “NOVEL MORPHOLINYL AMINE COMPOUNDS FOR THE TREATMENT OF AUTOIMMUNE DISEASE” (F. Hoffmann-La Roche AG, priority 2018, dated 2020).

pIC50: −log10 of the molar value.

In the test the target is T1, human TLR8 (Homo sapiens, UniProt Q9NR97).
T1 sequence (Q9NR97 27-1041): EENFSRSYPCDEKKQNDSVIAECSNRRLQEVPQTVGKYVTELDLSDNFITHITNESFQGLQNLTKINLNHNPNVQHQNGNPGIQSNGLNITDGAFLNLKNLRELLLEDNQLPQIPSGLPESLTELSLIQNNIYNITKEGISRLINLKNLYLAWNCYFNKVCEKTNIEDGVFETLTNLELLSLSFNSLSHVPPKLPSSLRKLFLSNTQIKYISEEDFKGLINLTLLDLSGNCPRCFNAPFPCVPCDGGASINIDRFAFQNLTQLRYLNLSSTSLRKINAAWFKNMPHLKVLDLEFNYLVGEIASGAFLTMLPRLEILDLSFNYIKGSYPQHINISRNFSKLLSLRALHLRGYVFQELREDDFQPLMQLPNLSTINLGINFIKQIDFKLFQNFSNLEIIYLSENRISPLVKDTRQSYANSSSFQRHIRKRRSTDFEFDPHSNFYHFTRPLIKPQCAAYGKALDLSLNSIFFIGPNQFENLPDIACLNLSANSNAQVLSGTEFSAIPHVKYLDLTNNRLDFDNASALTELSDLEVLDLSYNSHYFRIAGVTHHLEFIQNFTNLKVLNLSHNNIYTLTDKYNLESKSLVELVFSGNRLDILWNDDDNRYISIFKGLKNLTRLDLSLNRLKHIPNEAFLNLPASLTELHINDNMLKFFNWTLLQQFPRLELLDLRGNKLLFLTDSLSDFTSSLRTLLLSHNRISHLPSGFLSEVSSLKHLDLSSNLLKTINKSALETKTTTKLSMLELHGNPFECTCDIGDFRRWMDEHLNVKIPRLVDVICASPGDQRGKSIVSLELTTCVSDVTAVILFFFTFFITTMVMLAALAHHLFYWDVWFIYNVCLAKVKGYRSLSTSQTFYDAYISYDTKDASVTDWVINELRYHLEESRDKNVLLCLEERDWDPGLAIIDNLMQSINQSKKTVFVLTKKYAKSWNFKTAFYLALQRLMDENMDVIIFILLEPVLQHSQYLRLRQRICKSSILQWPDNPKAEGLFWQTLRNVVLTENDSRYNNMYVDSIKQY
The test is described as follows: HEK293-Blue-hTLR-8 cells assay (SEAP reporter, R848 stimulation). The test is classed as cell-based. The settings on record: HEK293-Blue-hTLR8 cells, R848, 20 hrs; 0.003 is the lowest tested concentration; read-out: HEK/hTLR8 IC50. The procedure:
The following tests were carried out in order to determine the activity of the compounds of formula (I) or (Ia) in HEK293-Blue-hTLR-7/8/9 cells assay.
HEK293-Blue-hTLR-8 cells assay:
A stable HEK293-Blue-hTLR-8 cell line was purchased from InvivoGen (Cat.#: hkb-htlr8, San Diego, California, USA). These cells were originally designed for studying the stimulation of human TLR8 by monitoring the activation of NF-κB. A SEAP (secreted embryonic alkaline phosphatase) reporter gene was placed under the control of the IFN-β minimal promoter fused to five NF-κB and AP-1-binding sites. The SEAP was induced by activating NF-κB and AP-1 via stimulating HEK-Blue hTLR8 cells with TLR8 ligands. Therefore the reporter expression was declined by TLR8 antagonist under the stimulation of a ligand, such as R848, for incubation of 20 hrs. The cell culture supernatant SEAP reporter activity was determined using QUANTI-Blue™ kit (Cat.#: rep-qb1, Invivogen, San Diego, Ca, USA) at a wavelength of 640 nm, a detection medium that turns purple or blue in the presence of alkaline phosphatase.
HEK293-Blue-hTLR8 cells were incubated at a density of 250,000∼450,000 cells/mL in a volume of 170 µL in a 96-well plate in Dulbecco's Modified Eagle's medium (DMEM) containing 4.5 g/L glucose, 50 U/mL penicillin, […], […], 2 mM L-glutamine, 10% (v/v) heat-inactivated fetal bovine serum with addition of 20 µL test compound in a serial dilution in the presence of final DMSO at 1% and 10 µL of 60uM R848 in above DMEM, perform incubation under 37 °C in a CO2 incubator for 20 hrs. Then 20 µL of the supernatant from each well was incubated with 180 µL Quanti-blue substrate solution at 37°C for 2 hrs and the absorbance was read at 620∼655 nm using a spectrophotometer. The signalling pathway that TLR8 activation leads to downstream NF-κB activation has been widely accepted, and therefore similar reporter assay was modified for evaluating TLR8 antagonist.
In the case of “3-fluoro-4-[(2R,6S)-2-methyl-6-[(5-piperazin-1-ylisoindolin-2-yl)methyl]morpholin-4-yl]pyrazolo[1,5-a]pyridine-7-carbonitrile [Example 7]”, the pIC50 was 7.89. As for “5-[(2S,6R)-2-[[5-[3-(hydroxymethyl)piperazin-1-yl]isoindolin-2-yl]methyl]-6-methyl-morpholin-4-yl]quinoline-8-carbonitrile [Example 85]”, the figure is 7.77; as for `C[C@@H]1CN(c2ccc3c(c2)CN(C[C@H]2CN(c4ccc(C#N)c5ncccc45)C[C@@H](C)O2)C3)C[C@@H](C)N1` (mixture of isomers) [Example 57, Trans-5-[(2R,6S)-2-methyl-6-[[5-[3,5-dimethylpiperazin-1-yl]isoindolin-2-yl]methyl]morpholin-4-yl]quinoline-8-carbonitrile], 7.92; as for `C[C@@H]1CN(c2ccc(C#N)c3ncccc23)C[C@H](CNCc2ccccc2)O1` [ER-886509, reference compound], 6.86. `C[C@@H]1CN(c2ccc(C#N)n3nccc23)C[C@H](CN2Cc3ccc(N4CCNCC4)cc3C2)O1` [Example 4, 4-[(2R,6S)-2-methyl-6-[(5-piperazin-1-ylisoindolin-2-yl)methyl]morpholin-4-yl]pyrazolo[1,5-a]pyridine-7-carbonitrile]: the pIC50 is 7.24. For `C[C@@H]1CN(c2ccc(C#N)n3nccc23)C[C@H](CN2Cc3ccc(C4CCNCC4)cc3C2)O1` [Example 8, 4-[(2R,6S)-2-methyl-6-[[5-(4-piperidyl)isoindolin-2-yl]methyl]morpholin-4-yl]pyrazolo[1,5-a]pyridine-7-carbonitrile] the value was 7.10. For `C[C@@H]1CN(c2ccc(C#N)n3nccc23)C[C@H](CN2Cc3ccc(C4CCNC4)cc3C2)O1` (stereo partly drawn) [Example 9, 4-[(2R,6S)-2-methyl-6-[(5-pyrrolidin-3-ylisoindolin-2-yl)methyl]morpholin-4-yl]pyrazolo[1,5-a]pyridine-7-carbonitrile] the value was 7.05; for `C[C@@H]1CN(c2ccc(C#N)n3nccc23)C[C@H](CN2CCc3cc(N4CCNCC4)ccc3C2)O1` [Example 10, 4-[(2R,6S)-2-methyl-6-[(6-piperazin-1-yl-3,4-dihydro-1H-isoquinolin-2-yl)methyl]morpholin-4-yl]pyrazolo[1,5-a]pyridine-7-carbonitrile], 7.28; for `C[C@@H]1CN(c2ccc(C#N)n3nccc23)C[C@H](CN2CCc3ccc(N4CCNCC4)cc3C2)O1` [Example 11, 4-[(2R,6S)-2-methyl-6-[(7-piperazin-1-yl-3,4-dihydro-1H-isoquinolin-2-yl)methyl]morpholin-4-yl]pyrazolo[1,5-a]pyridine-7-carbonitrile], 6.64. As for `C[C@@H]1CN(c2ccc(C#N)c3nccnc23)C[C@H](CN2Cc3ccc(N4CCNCC4)cc3C2)O1` [Example 12, 8-[(2R,6S)-2-methyl-6-[(5-piperazin-1-ylisoindolin-2-yl)methyl]morpholin-4-yl]quinoxaline-5-carbonitrile], the figure is more than 8.52; as for `C[C@@H]1CN(c2ccc(C#N)c3nccnc23)C[C@H](CN2CCc3cc(N4CCNCC4)ccc3C2)O1` [Example 13, 8-[(2R,6S)-2-methyl-6-[(6-piperazin-1-yl-3,4-dihydro-1H-isoquinolin-2-yl)methyl]morpholin-4-yl]quinoxaline-5-carbonitrile], more than 8.52.

With `C[C@@H]1CN(c2ccc(C#N)n3ncc(F)c23)C[C@H](CN2CCc3cc(N4CCNCC4)ccc3C2)O1` [Example 14, 3-fluoro-4-[(2R,6S)-2-methyl-6-[(6-piperazin-1-yl-3,4-dihydro-1H-isoquinolin-2-yl)methyl]morpholin-4-yl]pyrazolo[1,5-a]pyridine-7-carbonitrile], the pIC50 is 7.54.
